This is an account of results in the Biogen ADME set (Fang et al. 2023).

The conditions of this series: for aqueous solubility: pH 6.8.

In brackets after ≈: the same amount, converted by molar mass.

The aqueous solubility is how much of the substance goes into solution per volume. Read a low aqueous solubility as little dissolved substance.

The compound `CN(Cc1ccc(-c2ccc(Br)cc2)o1)C(=O)c1cnn(C)c1` came in with an intrinsic clearance, human liver microsomes of 10.5 mL/min/kg; an intrinsic clearance, rat liver microsomes of 134 mL/min/kg; an aqueous solubility of 5.53 µg/mL (≈ 14.8 µM).

Take `O=C(O)c1c2ccccc2nn1Cc1ccccc1`: the MDR1-MDCK efflux ratio was 1.62; the intrinsic clearance, human liver microsomes is ≤ 4.74 mL/min/kg; the intrinsic clearance, rat liver microsomes is ≤ 10.7 mL/min/kg; the aqueous solubility is 37.2 µg/mL (≈ 147 µM).

The compound `Nc1c(-c2ccc(F)cc2)ncn1Cc1ccccc1` gave an intrinsic clearance, human liver microsomes of 14.6 mL/min/kg and an intrinsic clearance, rat liver microsomes of 372 mL/min/kg.

For `Cc1cc(C)n(CCNC(=O)NC2CCOCC2)n1`, the MDR1-MDCK efflux ratio was 28.3; the intrinsic clearance, human liver microsomes is ≤ 4.74 mL/min/kg; the intrinsic clearance, rat liver microsomes is ≤ 10.7 mL/min/kg; the aqueous solubility turned out to be 47.5 µg/mL (≈ 178 µM).

Turning to `N#Cc1c(F)cccc1Oc1cccnc1`, the MDR1-MDCK efflux ratio stood at 0.634; the intrinsic clearance, human liver microsomes was ≤ 4.74 mL/min/kg; the intrinsic clearance, rat liver microsomes was 30.1 mL/min/kg.

With `Cc1nc(C)c(CNc2ncnn2C)s1`, the MDR1-MDCK efflux ratio stood at 4; the intrinsic clearance, human liver microsomes is ≤ 4.74 mL/min/kg; the intrinsic clearance, rat liver microsomes came out at 22.5 mL/min/kg.

As for `CS(=O)(=O)c1cccc(CNc2nc(Nc3ccc4c(c3)CCC(=O)N4)ncc2C(F)(F)F)c1`, the intrinsic clearance, human liver microsomes is 14.2 mL/min/kg; the intrinsic clearance, rat liver microsomes was determined as 133 mL/min/kg; the aqueous solubility was found to be 2.96 µg/mL (≈ 6.03 µM).

`CCCN(CCC1=CCCCC1)C(=O)c1cc(C(F)F)n[nH]1`: the MDR1-MDCK efflux ratio is 0.395; the intrinsic clearance, human liver microsomes turned out to be 65.9 mL/min/kg; the intrinsic clearance, rat liver microsomes worked out at 1990 mL/min/kg.

Regarding `O=C1CCCN1c1ccc(NCc2ccccn2)nc1`, the MDR1-MDCK efflux ratio was 1.31; the intrinsic clearance, human liver microsomes was ≤ 4.74 mL/min/kg; the intrinsic clearance, rat liver microsomes is ≤ 10.7 mL/min/kg; the aqueous solubility was found to be 54.4 µg/mL (≈ 203 µM).

Regarding `Cc1nnc(-c2cccc(C(=O)O)c2)o1`, the intrinsic clearance, human liver microsomes was ≤ 4.74 mL/min/kg; the intrinsic clearance, rat liver microsomes was ≤ 10.7 mL/min/kg; the aqueous solubility is 34.4 µg/mL (≈ 168 µM).

Compound `Cc1ccc(S(=O)(=O)N2CCCc3ccc(NS(=O)(=O)c4ccc(F)cc4C)cc32)cc1` gave an intrinsic clearance, human liver microsomes of 186 mL/min/kg and an intrinsic clearance, rat liver microsomes of 2420 mL/min/kg.

`O=C(Nc1ccccc1)Nc1ccccc1` had an intrinsic clearance, human liver microsomes of 16 mL/min/kg; an intrinsic clearance, rat liver microsomes of 91.4 mL/min/kg; an aqueous solubility of 3.9 µg/mL (≈ 18.4 µM).

As for `Cc1cccc(C)c1OCC(=O)N(C)[C@@H]1CC[C@@H](N2CCOCC2)[C@@H]1O`, the intrinsic clearance, human liver microsomes was determined as 6.43 mL/min/kg and the intrinsic clearance, rat liver microsomes worked out at 104 mL/min/kg.

Consider `Cc1cccn(Cc2cccc(F)c2)c1=O`, for which the MDR1-MDCK efflux ratio was determined as 0.652; the intrinsic clearance, human liver microsomes is ≤ 4.74 mL/min/kg; the intrinsic clearance, rat liver microsomes is 72 mL/min/kg; the aqueous solubility was 23.9 µg/mL (≈ 110 µM).

On to `CC#CCNc1ccc(-n2cnnn2)c(C)c1`, for which the MDR1-MDCK efflux ratio came to 0.59; the intrinsic clearance, human liver microsomes was determined as 21.1 mL/min/kg; the intrinsic clearance, rat liver microsomes amounted to 131 mL/min/kg; the aqueous solubility stood at 19.4 µg/mL (≈ 85.4 µM).

For the compound `COc1ccc(-c2nn3c(-c4ccco4)nnc3c3ccccc23)cc1`, the MDR1-MDCK efflux ratio is 0.526 and the aqueous solubility is 0.18 µg/mL (≈ 0.526 µM).

Take `Cc1ccc(OCCCC(=O)N2CCC(n3c(=O)[nH]c4ccccc43)CC2)cc1`: the intrinsic clearance, human liver microsomes stood at 123 mL/min/kg and the intrinsic clearance, rat liver microsomes was found to be 1540 mL/min/kg.

With `O=C(Nc1ccc(S(=O)(=O)Nc2ccnn2-c2ccccc2)cc1)c1ccco1`, the MDR1-MDCK efflux ratio worked out at 48.8; the intrinsic clearance, human liver microsomes amounted to 8.1 mL/min/kg; the intrinsic clearance, rat liver microsomes turned out to be 102 mL/min/kg; the aqueous solubility was found to be 63.4 µg/mL (≈ 155 µM).

As for `C[C@H]1Oc2cc(cnc2N)-c2c(nn(C)c2C#N)CN(C)C(=O)c2ccc(F)cc21`, the MDR1-MDCK efflux ratio amounted to 14.5; the intrinsic clearance, human liver microsomes is ≤ 4.74 mL/min/kg; the intrinsic clearance, rat liver microsomes is 34.3 mL/min/kg.

For `Cc1cc(Nc2ccc(F)cn2)cc(C2CCN(C(=O)Cn3nc(C)ccc3=O)C2)n1` (stereo not given), the MDR1-MDCK efflux ratio is 29.9; the intrinsic clearance, human liver microsomes came out at 19.7 mL/min/kg; the intrinsic clearance, rat liver microsomes is 89.9 mL/min/kg.

For `COc1c(C)cccc1CN1CCC(O)(c2ccc(F)cc2)CC1`, the MDR1-MDCK efflux ratio was 0.581; the intrinsic clearance, human liver microsomes amounted to 27.8 mL/min/kg; the intrinsic clearance, rat liver microsomes stood at 1280 mL/min/kg; the aqueous solubility is 39.7 µg/mL (≈ 121 µM).

As for `CCC(C)(C)c1ccc(Oc2ccc(NC(=O)CSc3cccc[n+]3[O-])cc2)cc1`, the MDR1-MDCK efflux ratio came to 2.2 and the aqueous solubility came to 0.45 µg/mL (≈ 1.06 µM).

For `O=c1ccc(-c2ccc(F)cc2)nn1Cc1ccncc1`, the MDR1-MDCK efflux ratio turned out to be 0.674; the intrinsic clearance, human liver microsomes amounted to 7.74 mL/min/kg; the intrinsic clearance, rat liver microsomes worked out at 56.5 mL/min/kg; the aqueous solubility turned out to be 46 µg/mL (≈ 163 µM).

On to `COc1ccc(OCc2n[nH]c(-c3ncoc3C(C)C)n2)cc1`, for which the MDR1-MDCK efflux ratio was determined as 0.675; the intrinsic clearance, human liver microsomes is 17.8 mL/min/kg; the intrinsic clearance, rat liver microsomes was 514 mL/min/kg.

The compound `COCCCNc1ncc(-c2ccsc2)c(-c2nc(C)c(C)s2)n1` showed an intrinsic clearance, human liver microsomes of 23.6 mL/min/kg and an intrinsic clearance, rat liver microsomes of 98.1 mL/min/kg.

With `Cc1noc(C)c1CSC(=N)N1CCOCC1`, the MDR1-MDCK efflux ratio is 1.21; the intrinsic clearance, human liver microsomes is ≤ 4.74 mL/min/kg; the intrinsic clearance, rat liver microsomes was ≤ 10.7 mL/min/kg.

`CC(C)(C)c1cc(NS(=O)(=O)c2cccc(F)c2)cc(C(C)(C)C)c1` came in with an intrinsic clearance, human liver microsomes of 10 mL/min/kg and an intrinsic clearance, rat liver microsomes of 306 mL/min/kg.

For `CN(C)CCOc1cc(-c2cn[nH]c2)ccc1NC(=O)C1COc2ccccc2O1` (stereo not given), the MDR1-MDCK efflux ratio was determined as 32.1; the intrinsic clearance, human liver microsomes came out at 19.9 mL/min/kg; the intrinsic clearance, rat liver microsomes is 691 mL/min/kg.

As to `Cc1cc(C)cc(Oc2cc(C#N)ccn2)c1`, the MDR1-MDCK efflux ratio was 0.559; the intrinsic clearance, human liver microsomes is 48 mL/min/kg; the intrinsic clearance, rat liver microsomes was 214 mL/min/kg; the aqueous solubility came out at 9.73 µg/mL (≈ 43.4 µM).

Turning to `CCCc1nc2nc(C)c(NS(=O)(=O)c3ccc(C4CCCCC4)cc3)c(O)n2n1`, the MDR1-MDCK efflux ratio was determined as 50.3; the fraction unbound, human plasma was determined as 0.00604; the fraction unbound, rat plasma came to 0.00729; the intrinsic clearance, human liver microsomes worked out at 169 mL/min/kg. The same compound showed an aqueous solubility of 43.9 µg/mL (≈ 102 µM).

On to `O=C(O)c1ccc(Nc2ncc3c(n2)-c2ccc(Cl)cc2C(c2c(F)cccc2F)=NC3)cc1`, for which the MDR1-MDCK efflux ratio was found to be 3.32; the intrinsic clearance, human liver microsomes was ≤ 4.74 mL/min/kg; the intrinsic clearance, rat liver microsomes was determined as 102 mL/min/kg; the aqueous solubility was 47.1 µg/mL (≈ 98.8 µM).

In the case of `CN(CC(=O)N(C)C)Cc1cc(C#N)ccc1F`, the MDR1-MDCK efflux ratio was 0.713; the intrinsic clearance, human liver microsomes is ≤ 4.74 mL/min/kg; the intrinsic clearance, rat liver microsomes was determined as 38.1 mL/min/kg; the aqueous solubility is 35.4 µg/mL (≈ 142 µM).

In turn, `N#Cc1c(O)c(Cl)c(Cl)c(C#N)c1Cl` displayed an aqueous solubility of 31.3 µg/mL (≈ 126 µM).

For `Cc1ccc(-c2ccc(N(C)CCO)nn2)c(-n2cccn2)c1`, the MDR1-MDCK efflux ratio turned out to be 29.3; the intrinsic clearance, human liver microsomes is ≤ 4.74 mL/min/kg; the intrinsic clearance, rat liver microsomes is 79.8 mL/min/kg.

For `CC(=O)Nc1sc2c(c1-c1nc3ccccc3s1)CCN(C(C)C)C2`, the intrinsic clearance, human liver microsomes is 34.8 mL/min/kg and the intrinsic clearance, rat liver microsomes was 231 mL/min/kg.

For the compound `CC(C)CN(c1ncnc2c1cnn2C)C1CC1`, the MDR1-MDCK efflux ratio amounted to 0.731; the intrinsic clearance, human liver microsomes is 50.5 mL/min/kg; the intrinsic clearance, rat liver microsomes came to 345 mL/min/kg; the aqueous solubility is 29.6 µg/mL (≈ 121 µM).

Turning to `COc1cc2c(c(OC)c1OC)CCNC(=O)C2`, the intrinsic clearance, human liver microsomes was ≤ 4.74 mL/min/kg; the intrinsic clearance, rat liver microsomes was ≤ 10.7 mL/min/kg; the aqueous solubility stood at 49.6 µg/mL (≈ 198 µM).

On to `CN(Cc1n[nH]c2c1CCCC2)c1nccnc1C#N`, for which the MDR1-MDCK efflux ratio was found to be 1.01; the intrinsic clearance, human liver microsomes stood at 39.6 mL/min/kg; the intrinsic clearance, rat liver microsomes was 1140 mL/min/kg; the aqueous solubility stood at 20.5 µg/mL (≈ 76.4 µM).

For `O=C(CC1CCN(c2ncc(Cl)cn2)CC1)N1CCOCC1`, the MDR1-MDCK efflux ratio was 0.764; the intrinsic clearance, human liver microsomes is ≤ 4.74 mL/min/kg; the intrinsic clearance, rat liver microsomes stood at 46.9 mL/min/kg; the aqueous solubility was 51.2 µg/mL (≈ 158 µM).

`CCOc1ccc(CNC(=O)Cn2ccc3cc(S(=O)(=O)N4CCCC4)ccc32)cc1`: the MDR1-MDCK efflux ratio was found to be 11.9; the intrinsic clearance, human liver microsomes was determined as 423 mL/min/kg; the intrinsic clearance, rat liver microsomes amounted to 2100 mL/min/kg.

With `CNc1ncc(CN(C)CCN2CCCCC2)cn1`, the MDR1-MDCK efflux ratio was determined as 1.13; the intrinsic clearance, human liver microsomes stood at 6.66 mL/min/kg; the intrinsic clearance, rat liver microsomes came out at 57.2 mL/min/kg.

In the case of `Cc1ccc(F)c(N(C#N)Cc2nccn2C(F)F)c1`, the MDR1-MDCK efflux ratio is 0.613; the intrinsic clearance, human liver microsomes worked out at 19.9 mL/min/kg; the intrinsic clearance, rat liver microsomes came to 225 mL/min/kg; the aqueous solubility stood at 45.1 µg/mL (≈ 161 µM).

For `Clc1ccccc1CNCc1ccc2c(c1)OCCO2`, the MDR1-MDCK efflux ratio came out at 0.443; the intrinsic clearance, human liver microsomes was 479 mL/min/kg; the intrinsic clearance, rat liver microsomes is 2170 mL/min/kg; the aqueous solubility came out at 24.5 µg/mL (≈ 84.6 µM).

Compound `Cc1c(Nc2ccc3nccnc3n2)cnn1C` yielded an aqueous solubility of 31.7 µg/mL (≈ 132 µM).

With `Cc1nc(C2CCN(c3ccc(F)cc3C#N)CC2)no1`, the intrinsic clearance, human liver microsomes turned out to be 9.68 mL/min/kg and the intrinsic clearance, rat liver microsomes amounted to 527 mL/min/kg.

With `Cc1ccc(-c2nc(CN3CCOCC3)n(Cc3ccc(F)cc3)n2)o1`, the MDR1-MDCK efflux ratio was determined as 4.11; the intrinsic clearance, human liver microsomes was found to be 98.3 mL/min/kg; the intrinsic clearance, rat liver microsomes amounted to 1400 mL/min/kg; the aqueous solubility turned out to be 28.9 µg/mL (≈ 81.2 µM).

Turning to `CNCc1cc(N(C)C)nc(C2CCCN2C(=O)c2oc3ccc(Cl)cc3c2C)n1` (stereo not given), the MDR1-MDCK efflux ratio was found to be 117; the intrinsic clearance, human liver microsomes was 44.7 mL/min/kg; the intrinsic clearance, rat liver microsomes was found to be 840 mL/min/kg.

As for `CCN1CCC(Nc2ncnc3c2cnn3C)CC1`, the MDR1-MDCK efflux ratio worked out at 4.01; the intrinsic clearance, human liver microsomes turned out to be 63.4 mL/min/kg; the intrinsic clearance, rat liver microsomes turned out to be 21.9 mL/min/kg; the aqueous solubility is 32.5 µg/mL (≈ 125 µM).
